# Experimental data from US20250295119A1, “SPHERICAL NAN[…] FROM TMGMV IMPROVE SOIL TRANSPORT OF SMALL, HYDROPHOBIC AGROCHEMICALS” (THE REGENTS OF THE UNIVERSITY OF CALIFORNIA, priority 2022, published 2025).
# What was measured:
# [1] = system: C. elegans; assay: Pluronic F127 gel burrowing assay after treatment of C. elegans in solution; assay type: in vivo, Caenorhabditis elegans; conditions: 10 μM ivermectin (normalized), 90 minutes incubation in solution, no soil passage
# Procedure: (§1) As a final test, Applicant delivered IVN-SNPs against C. elegans (FIG. 4). Nematodes were incubated with SNPs, IVN-SNPs, and free IVN for 90 minutes in solution. In parallel, the same (IVN-)SNPs were passed through a soil column and collected before treating the C. elegans in solution. For all samples, Applicant performed a modified gel burrowing assay (FIG. 4A) by transferring the nematodes and casting them in Pluronic F127 in a well-plate^23. The surface was coated with E. coli OP-50 lysate to attract the nematodes, and the number of C. elegans which penetrated to the surface were counted. Nematode mobility was quantified based on their total track coverage using edge detection (FIGS. 4B-4D, FIG. 13, FIG. 14). The mobility was then estimated using the following equation: […]
# Using the optimized Pluronic concentration of 26% w/w previously reported, Pluronic F127 solutions were stored at 4° C. to dissolve and stay soluble (Lesanpezeshki, L. et al., Scientific Reports 2019). […] After 2 hours, an 11×11 area scan at 4× magnification (Keyence BZ-X800 Fluorescence Microscope) was taken for each well. The number of nematodes on the surface were counted manually and the area fraction of their tracks was determined by edge detection and binary image transformation in ImageJ.
# [2] = system: C. elegans; assay: Pluronic F127 gel burrowing assay with samples first passed through a 10 cm soil column; assay type: in vivo, Caenorhabditis elegans; conditions: 10 μM ivermectin, collected fractions
# Procedure: as §1
# Magic Topsoil (Michigan Peat) was weighed and packed into a cylindrical column fitted with miracloth at the bottom. […] The band intensity of the fractions on SDS PAGE was determined using ImageJ. […]
# Using the optimized Pluronic concentration of 26% w/w previously reported, Pluronic F127 solutions were stored at 4° C. to dissolve and stay soluble (Lesanpezeshki, L. et al., Scientific Reports 2019). […] After 2 hours, an 11×11 area scan at 4× magnification (Keyence BZ-X800 Fluorescence Microscope) was taken for each well. […]
substance,measurement,setting,value
ivermectin,reduction in surface velocity,[1],4.5 fold
same,reduction in the number of nematodes on the surface,[1],6 fold
same,reduction in surface velocity after passing through a soil column,[2],no reduction
same,reduction in the number of nematodes after passing through a soil column,[2],no reduction
